# ChEMBL document CHEMBL1127187, “Semisynthetic modification of hygromycin A. 2. synthesis and antibacterial activity of aryl analogs” (1993)
# Columns and labels:
# Assay type in all cases: functional
# [1] = system: Pasteurella multocida; assay: Antibacterial activity against Pasteurella multocida (an important animal respiratory pathogen).
# [2] = system: Brachyspira hyodysenteriae; assay: Antibacterial activity against Serpulina (Treponema) hyodysenteriae (the causative organism of swine dysentery).
# [3] = system: Brachyspira hyodysenteriae; assay: Compound was tested for antibacterial activity against Serpulina (Treponema hyodysenteriae (the causative organism of swine dysentery)
structure (smiles),measurement,setting,value
C=CCOc1c(F)cc(/C=C(\C)C(=O)N[C@@H]2[C@H](O)[C@@H](O)[C@H]3OCO[C@H]3[C@@H]2O)c(F)c1O,MIC,[1],100 µg/mL
same,MIC,[2],50 µg/mL
C=CCOc1c(Br)cc(/C=C(/C)C(=O)N[C@@H]2[C@H](O)[C@@H](O)[C@H]3OCO[C@H]3[C@@H]2O)cc1Br,MIC,[1],> 200 µg/mL
same,MIC,[2],> 200 µg/mL
C=CCOc1c(F)cc(/C=C(/C)C(=O)N[C@@H]2[C@H](O)[C@@H](O)[C@H]3OCO[C@H]3[C@@H]2O)cc1F,MIC,[1],> 200 µg/mL
same,MIC,[2],25 µg/mL
C=CCOc1c(O)cc(/C=C(/C)C(=O)N[C@@H]2[C@H](O)[C@@H](O)[C@H]3OCO[C@H]3[C@@H]2O)cc1Br,MIC,[1],> 200 µg/mL
same,MIC,[2],> 200 µg/mL
C=CCOc1ccc(/C=C(/C)C(=O)N[C@@H]2[C@H](O)[C@@H](O)[C@H]3OCO[C@H]3[C@@H]2O)cc1Br,MIC,[1],> 200 µg/mL
same,MIC,[2],12.5 µg/mL
C=CCOc1ccc(/C=C(\C)C(=O)N[C@@H]2[C@H](O)[C@@H](O)[C@H]3OCO[C@H]3[C@@H]2O)c(Cl)c1,MIC,[1],> 200 µg/mL
same,MIC,[2],> 200 µg/mL
C=CCOc1ccc(/C=C(\C)C(=O)N[C@@H]2[C@H](O)[C@@H](O)[C@H]3OCO[C@H]3[C@@H]2O)c(F)c1,MIC,[1],25 µg/mL
same,MIC,[2],3.13 µg/mL
C=CCOc1ccc(/C=C(/C)C(=O)N[C@@H]2[C@H](O)[C@@H](O)[C@H]3OCO[C@H]3[C@@H]2O)cc1CO,MIC,[1],100 µg/mL
C=CCOc1ccc(/C=C(/C)C(=O)N[C@@H]2[C@H](O)[C@@H](O)[C@H]3OCO[C@H]3[C@@H]2O)cc1F,MIC,[1],50 µg/mL
same,MIC,[2],1.56 µg/mL
C=CCOc1ccc(/C=C(/C)C(=O)N[C@@H]2[C@H](O)[C@@H](O)[C@H]3OCO[C@H]3[C@@H]2O)cc1NS(C)(=O)=O,MIC,[1],> 200 µg/mL
same,MIC,[2],> 200 µg/mL
C=CCOc1ccc(/C=C(/C)C(=O)N[C@@H]2[C@H](O)[C@@H](O)[C@H]3OCO[C@H]3[C@@H]2O)cc1N,MIC,[1],0.78 µg/mL
same,MIC,[2],0.78 µg/mL
C=CCOc1ccc(/C=C(/C)C(=O)N[C@@H]2[C@H](O)[C@@H](O)[C@H]3OCO[C@H]3[C@@H]2O)cc1OC,MIC,[1],> 200 µg/mL
same,MIC,[2],> 200 µg/mL
C=CCOc1ccc(/C=C(\C)C(=O)N[C@@H]2[C@H](O)[C@@H](O)[C@H]3OCO[C@H]3[C@@H]2O)cc1CNCC,MIC,[1],> 200 µg/mL
C=CCOc1cc(F)c(/C=C(/C)C(=O)N[C@@H]2[C@H](O)[C@@H](O)[C@H]3OCO[C@H]3[C@@H]2O)cc1F,MIC,[1],25 µg/mL
same,MIC,[2],1.56 µg/mL
C=CCOc1ccc(/C=C(/C)C(=O)N[C@@H]2[C@H](O)[C@@H](O)[C@H]3OCO[C@H]3[C@@H]2O)cc1,MIC,[1],50 µg/mL
same,MIC,[2],6.25 µg/mL
C=CCOc1ccc(/C=C(/C)C(=O)N[C@@H]2[C@H](O)[C@@H](O)[C@H]3OCO[C@H]3[C@@H]2O)cc1O,MIC,[3],0.78 µg/mL
same,MIC,[1],0.78 µg/mL
C=CCOc1ccc(/C=C(/C)C(=O)N[C@@H]2[C@H](O)[C@@H](O)[C@H]3OCO[C@H]3[C@@H]2O)cc1NC(C)=O,MIC,[1],> 200 µg/mL
same,MIC,[2],> 200 µg/mL
C=CCOc1ccc(/C=C(/C)C(=O)N[C@@H]2[C@H](O)[C@@H](O)[C@H]3OCO[C@H]3[C@@H]2O)cc1I,MIC,[2],100 µg/mL
C=CCOc1ccc(/C=C(\C)C(=O)N[C@@H]2[C@H](O)[C@@H](O)[C@H]3OCO[C@H]3[C@@H]2O)c(F)c1F,MIC,[1],> 200 µg/mL
same,MIC,[2],25 µg/mL
C=CCOc1ccc(/C=C(/C)C(=O)N[C@@H]2[C@H](O)[C@@H](O)[C@H]3OCO[C@H]3[C@@H]2O)cc1C(=O)O,MIC,[1],> 200 µg/mL
same,MIC,[2],> 200 µg/mL
C=CCOc1ccc(/C=C(/C)C(=O)N[C@@H]2[C@H](O)[C@@H](O)[C@H]3OCO[C@H]3[C@@H]2O)cc1NC,MIC,[1],> 200 µg/mL
same,MIC,[2],> 200 µg/mL
C=CCOc1ccc(/C=C(/C)C(=O)N[C@@H]2[C@H](O)[C@@H](O)[C@H]3OCO[C@H]3[C@@H]2O)cc1C,MIC,[1],50 µg/mL
same,MIC,[2],6.25 µg/mL
C=CCOc1c(O)cc(/C=C(/C)C(=O)N[C@@H]2[C@H](O)[C@@H](O)[C@H]3OCO[C@H]3[C@@H]2O)cc1C#N,MIC,[1],> 200 µg/mL
same,MIC,[2],> 200 µg/mL
C=CCOc1ccc(/C=C(/C)C(=O)N[C@@H]2[C@H](O)[C@@H](O)[C@H]3OCO[C@H]3[C@@H]2O)cc1Cl,MIC,[2],3.13 µg/mL
C=CCOc1c(C)cc(/C=C(/C)C(=O)N[C@@H]2[C@H](O)[C@@H](O)[C@H]3OCO[C@H]3[C@@H]2O)cc1C,MIC,[1],> 200 µg/mL
same,MIC,[2],> 200 µg/mL
C=CCOc1ccc(/C=C(\C)C(=O)N[C@@H]2[C@H](O)[C@@H](O)[C@H]3OCO[C@H]3[C@@H]2O)c(OC)c1,MIC,[1],> 200 µg/mL
same,MIC,[2],> 200 µg/mL
"C=CCOc1c(O)cc(/C=C(/C)C(=O)N[C@@H]2[C@H](O)[C@@H](O)[C@H]3OCOC3[C@@H]2O)cc1OC (single isomer, unassigned)",MIC,[1],> 200 µg/mL
same,MIC,[2],> 200 µg/mL
CC(=O)[C@H]1O[C@@H](Oc2ccc(C=C(C)C(=O)N[C@@H]3[C@H](O)[C@@H](O)[C@H]4OCO[C@H]4[C@@H]3O)cc2O)[C@@H](O)[C@@H]1O [HYGROMYCIN A],MIC,[1],0.78 µg/mL
same,MIC,[2],0.78 µg/mL
